Assay [1] has as its system SW-620 (expressing KRas G12V mutant). Put plainly: Proliferation Assay (Cell Viability Assay). The note with it: Homo sapiens, SW-620, colon. Type of assay: cell-based. On the procedure:
Cell lines: Human tumor-derived cell lines were purchased from American Type Culture Collection. Human tumor-derived pancreatic cancer cell line MiaPaca-2 (expressing KRAS G12C mutant) and Panc-1 (expressing KRas G12D mutant), and Human non-small cell lung cancer (NSCLC) cell line A549 (expressing KRas G12S mutant) were grown in complete DMEM-High Glucose medium. Human colon cancer cell line SW-620 (expressing KRas G12V mutant) was grown in RPMI 1640 medium. All cell lines were supplemented with penicillin (100 U/mL), streptomycin (100 μg/mL), and 10% heat-inactivated FBS at 37° C. in a humidified incubator with 5% CO2.
Method: Cells were plated at 2000 to 5000 cells/well density in 96-wells plate and cultured overnight. Small molecules to be tested were added to the cells in the final concentration of 10 μM in the presence of 0.3% DMSO and 10% FBS and incubated for 2-4 days at 37° C. in a humidified incubator with 5% CO2. For IC50 value determination, serial dilutions of compounds were added to cells under the same conditions.
Assay: At the end of the incubation period, cell viability was determined using the CellTiter 96® Aqueous One Solution Cell Proliferation Assay according to manufacturer specifications (Promega, Madison, WI). The percentage of small molecules inhibition of cellular proliferation was calculated from raw data.
Cell lines: these Human tumor-derived cell lines were purchased from American Type Culture Collection. Human tumor-derived pancreatic cancer cell line MiaPaca-2 (expressing KRAS G12C mutant) and Panc-1 (expressing KRas G12D mutant), and Human non-small cell lung cancer (NSCLC) cell line A549 (expressing KRas G12S mutant), and Human melanoma cell line A375 (wild type Kras) were grown in complete DMEM-High Glucose medium. Human tumor-derived pancreatic cancer cell lines SU86.86 (expressing KRas G12D mutant), BxPC3 (expressing wild type K-Ras), and Human non-small cell lung cancer (NSCLC) cell lines NCI-H441 (expressing KRas G12S mutant), NCI-H1975 (expressing wild type KRas), NCI-H358 (expressing KRas G12C mutant), NCI-H1299 (expressing NRas Q61H mutant), and Human colon cancer cell line SW-620 (expressing KRas G12V mutant), Human triple negative breast cancer cell line HCC-1806 (expressing wild type KRas), and Human tumor-derived multiple myeloma cell line MM.1R (expressing wild type KRAS), were grown in RPMI 1640 medium. Human tumor-derived breast cancer cell line BT-549 (expressing wild type KRAS) was grown in RPMI 1640 medium in the presence of 11.8U insulin. Human tumor-derived pancreatic cancer cell line HPAF-II (expressing KRas G12D mutant), Human triple negative breast cancer cell line BT-20 (expressing wild type KRas), and Human colon cancer cell line LS123 (expressing KRas G12S mutant), were grown in EMEM medium. Human tumor-derived pancreatic cancer cell line CF-PAC1 (expressing KRas G12V mutant) was frown in IMDM medium, and Human colon cancer cell line HT29 (expressing wild type KRas) was grown in McCoy's 5A medium. The colon cancer cell line GP2d (expressing KRas G12D mutant) was purchased from MilliporeSigma and grown in DMEM-High Glucose medium. All cell lines were supplemented with penicillin (100 U/mL), streptomycin (100 μg/mL), and 10% heat-inactivated FBS at 37° C. in a humidified incubator with 5% CO2.
Method: Cells were plated at 2000 to 5000 cells/well density in 96-wells plate and cultured overnight. Small molecules that were tested were added to the cells in the final concentration of 10 μM in the presence of 0.3% DMSO and 10% FBS, and incubated for 2-4 days at 37° C. in a humidified incubator with 5% CO2. For IC50 value determination, serial dilutions of compounds were added to cells under the same conditions.

The next assay concerns active/cleaved caspase 3. Put plainly: Cell-based caspase activation assay (western blot). Details: species or system human. On the procedure: (§1) Biological Example 4: Puma Expression and Caspases Activation Assay
(§2) Protocols for Cell-Based Puma Expression and Caspase Activation Assays
(§3) Cell lines: All human tumor-derived cancer cell lines were purchased from American Type Culture Collection. Human tumor-derived cancer cell lines Panc-1 (expressing KRas G12D mutant), MiaPaca-2 (expressing KRas G12C mutant), A549 (expressing KRas G12S mutant), and A375 (expressing wild type KRas) were grown in complete DMEM-High Glucose medium and NCI-H1975 (expressing wild type KRas), MM.1R (expressing wild type KRas) and IM.9 (expressing wild type KRas) were grown in RPMI1640 medium. Human tumor-derived cancer cell line BT-549 (expressing wild type KRas) was grown in RPMI1640 medium with 11.8U insulin. All mediums were supplemented with penicillin (100 U/mL), streptomycin (100 μg/mL), and 10% heat-inactivated FBS at 37° C. in a humidified incubator with 5% CO2.
(§4) Method: Cells were plated at 300,000 to 800,000 cells/well density in a 6-well plate in the presence of 10% FBS. The next day small molecules to be tested were added to the cells in the final concentration of 3 μM in the presence of 0.3% DMSO for 48 hours incubation at 37° C. For IC50 value determination, serial dilutions of compounds were added to cells under the same conditions. Following 48 hours of incubation cells were lysed with lysis buffer containing 1% Triton X-100, EDTA, and Halt™ Protease & Phosphatase Inhibitor Cocktail (Thermo Scientific). Protein concentration was assessed by BCA protein assay (Thermo Scientific). Increase expression of PUMA and active/cleaved forms of caspase 3, caspase 6 and caspase 9 were detected by western blot.
(§5) Western blot protocol: Equal amounts of protein (15-50 μg) were separated by SDS-PAGE and transferred to nitrocellulose membranes (Invitrogen by Thermo Fisher Scientific). The membrane was stained with Ponceau S Stain (Boston BioProducts) to verify uniform protein loading. Membranes were blocked with 10% milk and expression levels of PUMA was assessed by incubating overnight at 4° C. with the antibody PUMA (D30C10) from Cell Signaling Technology (#12450) and active/cleaved forms of caspase 3, caspase 6 and caspase 9 by incubating overnight at 4° C. with the following antibodies: cleaved caspase-3 (Asp175) (5A1E), cleaved caspase-6 (Asp162) and cleaved caspase-9 (Asp330) (D2D4) (all antibodies from Cell Signaling Technology). Then the membranes were incubated with HRP-conjugated secondary antibody (Jackson Immunoresearch, West Grove, PA). Bands were incubated in Amersham ECL Prime Western Blotting Detection Reagent (GE Healthcare) and visualized using the ChemiDoc MP imaging system (Bio-Rad).
In general terms: Immunoblotting shows a protein as a band on a membrane.

The next assay has as its system active/cleaved caspase 9. Put plainly: Cell-based caspase activation assay (western blot). Details: species or system human. Here is the method:
as §1, §2, §3, §4, §5

The subject of a further assay is active/cleaved caspase 6. Put plainly: Cell-based caspase activation assay (western blot). Details: species or system human. On the procedure: as §1, §2, §3, §4, §5

Broadly, the IC50 is the concentration at which inhibition is half-maximal. A higher IC50 goes with lower potency. For `COc1ccnc(Nc2nc(-c3nccn3C)nn3cc(-c4ccn(C(C)C)n4)c(C)c23)c1` [Compound 58, 6-(1-Isopropyl-1H-pyrazol-3-yl)-N-(4-methoxypyridin-2-yl)-5-methyl-2-(1-methyl-1H-imidazol-2-yl)pyrrolo[2,1-f][1,2,4]triazin-4-amine], the IC50 in assay [1] was < 150 nM. Moreover, the “Caspase 3 activation” value is given as “yes” in the assay on active/cleaved caspase 3 (A549, after 48 hours); “yes” in the assay on active/cleaved caspase 3 (BT-549, after 48 hours); “yes” in the assay on active/cleaved caspase 3 (MiaPaca2, after 48 hours). Moreover, the “Caspase 9 activation” value was “yes” with active/cleaved caspase 9 (A549, after 48 hours); “yes” in the assay on active/cleaved caspase 9 (BT-549, after 48 hours); “yes” with active/cleaved caspase 9 (MiaPaca2, after 48 hours). For the same compound, the “Caspase 6 activation” value is “yes” with active/cleaved caspase 6 (A549, after 48 hours); “yes” with active/cleaved caspase 6 (BT-549, after 48 hours); “yes” in the assay on active/cleaved caspase 6 (MiaPaca2, after 48 hours).

Values taken from patent US12459951B2, “Compounds that interact with RAS superfamily proteins for treatment of cancers, inflammatory diseases, rasopathies, and fibrotic disease” (SHY Therapeutics, LLC, priority 2022, dated 2025).
